In patent publication US4409210A, “Antibiotic compound” (priority 1982, dated 1983):
≈ marks a conversion by molar mass, not a printed value.

Assays:
Format in all cases: cell-based
[1] = system: Fusobacterium nucleatum A21906; test: MIC, serial two-fold dilution method (anaerobic); settings: Fusobacterium nucleatum, A21906, read-out: minimum inhibitory concentration (MIC)
[2] = system: Streptococcus pneumoniae A9585; test: MIC, serial two-fold dilution method (aerobic); settings: Streptococcus pneumoniae, A9585, read-out: minimum inhibitory concentration (MIC)
[3] = system: Staphylococcus aureus A20701; test: MIC, serial two-fold dilution method (aerobic); settings: Staphylococcus aureus, A20701, read-out: minimum inhibitory concentration (MIC)
[4] = system: Staphylococcus aureus A20239; test: MIC, serial two-fold dilution method (aerobic); settings: Staphylococcus aureus, A20239, read-out: minimum inhibitory concentration (MIC)
[5] = system: Staphylococcus aureus A9748; test: MIC, serial two-fold dilution method (aerobic); settings: Staphylococcus aureus, A9748, read-out: minimum inhibitory concentration (MIC)
[6] = system: Bacteroides fragilis A22533; test: MIC, serial two-fold dilution method (anaerobic); settings: Bacteroides fragilis, A22533, read-out: minimum inhibitory concentration (MIC)
[7] = system: Fusobacterium varium ATCC 8501; test: MIC, serial two-fold dilution method (anaerobic); settings: Fusobacterium varium, ATCC8501, read-out: minimum inhibitory concentration (MIC)
[8] = system: Haemophilus influenzae A22481; test: MIC, serial two-fold dilution method (aerobic); settings: Haemophilus influenzae, A22481, read-out: minimum inhibitory concentration (MIC)
[9] = system: Streptococcus pneumoniae IID-Type-I; test: MIC, serial two-fold dilution method (aerobic); settings: Streptococcus pneumoniae, read-out: minimum inhibitory concentration (MIC)
[10] = system: Veillonella alcalescens A21914-1; test: MIC, serial two-fold dilution method (anaerobic); settings: Veillonella parvula, A219141, read-out: minimum inhibitory concentration (MIC)
[11] = system: Clostridium ramosum A21970; test: MIC, serial two-fold dilution method (anaerobic); settings: Thomasclavelia ramosa, A21970, read-out: minimum inhibitory concentration (MIC)
[12] = system: Bacteroides fragilis A20926; test: MIC, serial two-fold dilution method (anaerobic); settings: Bacteroides fragilis, A20926, read-out: minimum inhibitory concentration (MIC)
[13] = system: Bacteroides fragilis CUH-24; test: MIC, serial two-fold dilution method (anaerobic); settings: Bacteroides fragilis, CUH24, read-out: minimum inhibitory concentration (MIC)
[14] = system: Bacillus subtilis ATCC 6633; test: MIC, serial two-fold dilution method (aerobic); settings: Bacillus subtilis, ATCC6633, read-out: minimum inhibitory concentration (MIC)
[15] = system: Sarcina lutea PCI-1001; test: MIC, serial two-fold dilution method (aerobic); settings: Micrococcus luteus, PCI1001, read-out: minimum inhibitory concentration (MIC)
[16] = system: Bacteroides fragilis A22695; test: MIC, serial two-fold dilution method (anaerobic); settings: Bacteroides fragilis, A22695, read-out: minimum inhibitory concentration (MIC)
[17] = system: Bacteroides fragilis A21900; test: MIC, serial two-fold dilution method (anaerobic); settings: Bacteroides fragilis, A21900, read-out: minimum inhibitory concentration (MIC)
[18] = system: Staphylococcus aureus A9856; test: MIC, serial two-fold dilution method (aerobic); settings: Staphylococcus aureus, A9856, read-out: minimum inhibitory concentration (MIC)
[19] = system: Propionibacterium acnes A21953; test: MIC, serial two-fold dilution method (anaerobic); settings: Cutibacterium acnes, A21953, read-out: minimum inhibitory concentration (MIC)
[20] = system: Bacteroides fragilis CUH-9; test: MIC, serial two-fold dilution method (anaerobic); settings: Bacteroides fragilis, CUH9, read-out: minimum inhibitory concentration (MIC)
[21] = system: Staphylococcus aureus A22421; test: MIC, serial two-fold dilution method (aerobic); settings: Staphylococcus aureus, A22421, read-out: minimum inhibitory concentration (MIC)
[22] = system: Pseudomonas aeruginosa D-113; test: MIC, serial two-fold dilution method (aerobic); settings: Pseudomonas aeruginosa, D113, read-out: minimum inhibitory concentration (MIC)
[23] = system: Propionibacterium acnes A21933; test: MIC, serial two-fold dilution method (anaerobic); settings: Cutibacterium acnes, A21933, read-out: minimum inhibitory concentration (MIC)
[24] = system: Clostridium cylindrosporum A9562; test: MIC, serial two-fold dilution method (anaerobic); settings: Clostridium cylindrosporum, A9562, read-out: minimum inhibitory concentration (MIC)
[25] = system: Staphylococcus aureus BX-1633; test: MIC, serial two-fold dilution method (aerobic); settings: Staphylococcus aureus, BX1633, read-out: minimum inhibitory concentration (MIC)
[26] = system: Clostridium perfringens A22787; test: microbe, parasite or virus in culture; settings: Clostridium perfringens, A22787, read-out: minimum inhibitory concentration (MIC)
[27] = system: Staphylococcus aureus 209P; test: MIC, serial two-fold dilution method (aerobic); settings: Staphylococcus aureus, 209P, read-out: minimum inhibitory concentration (MIC)

Question: Which results are given for CN[C@H](CC(C)C)C(=O)N[C@H]1C(=O)N[C@@H](CC(N)=O)C(=O)N[C@H]2C(=O)N[C@H]3C(=O)N[C@H](C(=O)N[C@H](C(=O)O)c4cc(O)cc(O)c4-c4cc3ccc4O)[C@H](O)c3ccc(c(Cl)c3)Oc3cc2cc(c3O[C@@H]2O[C@H](CO)[C@@H](O)[C@H](O)[C@H]2O[C@H]2C[C@](C)(N)[C@H](O)[C@H](C)O2)Oc2ccc(cc2Cl)[C@H]1O [Vancomycin]?
Answer: MIC [1]: 0.8 µg/mL (≈ 0.552 µM); MIC [2]: 0.4 µg/mL (≈ 0.276 µM); MIC [3]: 0.8 µg/mL (≈ 0.552 µM); MIC [4]: 1.6 µg/mL (≈ 1.1 µM); MIC [5]: 0.8 µg/mL (≈ 0.552 µM); MIC [6]: 50 µg/mL (≈ 34.5 µM); MIC [7]: 6.3 µg/mL (≈ 4.35 µM); MIC [8]: > 100 µg/mL; MIC [9]: 0.8 µg/mL (≈ 0.552 µM); MIC [10]: 1.6 µg/mL (≈ 1.1 µM); MIC [11]: > 100 µg/mL; MIC [12]: 3.1 µg/mL (≈ 2.14 µM); MIC [13]: 25 µg/mL (≈ 17.3 µM); MIC [14]: 0.1 µg/mL (≈ 0.069 µM); MIC [15]: 0.4 µg/mL (≈ 0.276 µM); MIC [16]: 25 µg/mL (≈ 17.3 µM); MIC [17]: 6.3 µg/mL (≈ 4.35 µM); MIC [18]: 0.8 µg/mL (≈ 0.552 µM); MIC [19]: 0.8 µg/mL (≈ 0.552 µM); MIC [20]: 50 µg/mL (≈ 34.5 µM); MIC [21]: 0.8 µg/mL (≈ 0.552 µM); MIC [22]: > 100 µg/mL; MIC [23]: 0.8 µg/mL (≈ 0.552 µM); MIC [24]: 0.8 µg/mL (≈ 0.552 µM); MIC [25]: 0.8 µg/mL (≈ 0.552 µM); MIC [26]: 0.8 µg/mL (≈ 0.552 µM); MIC [27]: 0.4 µg/mL (≈ 0.276 µM)
